Measured values from patent publication US20240270810A1, “PREPARATION AND APPLICATION OF POLYPEPTIDE” (GUANGDONG RAYNOVENT BIOTECH CO., LTD., priority 2021, published 2024).

Legend:
[1] = in vitro; assay type: in vitro ADME; conditions: mouse, plasma
Experimental: (§1) To study the stability of the test compounds in the plasma of normal mice. • 1. Before the experiment, the clotted frozen plasma was thawed in a water bath at 37° C. The resulting plasma was centrifuged at 4000 rpm for 5 min. If there is blood clot, remove the clot and adjust the pH to 7.4±0.1. • 2. The test compound solution was prepared by diluting the compounds with DMSO to prepare a solution of 100 μM. • 3. 98 μL of plasma, as a blank control, was added with 2 μL of the test compound solution (100 μM) to get a mixed solution with a final concentration of 2 μM, which was incubated in a water bath at 37° C. • 4. 100 μL of H3PO4 solution and 800 μL of stop solution (a 100% solution of 200 ng/mL tolbutamide and 200 ng/ml labetalol in methanol) were respectively added at each time point (0, 10, 30, 60, and 120 min) to precipitate protein, which was then mixed thoroughly. • 5. The samples were centrifuged at 4000 rpm for 20 min, and 100 μL of supernatant was taken from each well for LC-MS/MS analysis.

[2] = in vivo; design: species or system C57BL/6 mice; conditions: sc, 0.048 mg/kg
Experimental: The pharmacokinetic characteristics in rodent animals following subcutaneous injection of the compounds were tested using standard protocols. In the experiment, the candidate compounds were formulated into clear solution, which was administered by subcutaneous injection (SC, 0.048 mpk). The vehicle for subcutaneous injection was citrate buffer solution (20 mM, pH=7). The whole blood was collected and processed to get the plasma. The drug concentration was analyzed by LC-MS/MS, and the pharmacokinetic parameters were calculated using Phoenix WinNonlin software.

[3] = in vivo; design: species or system Cynomolgus macaques; conditions: cynomolgus monkey, sc, 0.02 mg/kg
Experimental: The pharmacokinetic characteristics in mammals following intravenous injection and subcutaneous injection of the compounds were tested using standard protocols. In the experiment, the candidate compounds were formulated into clear solution, which was administered to Cynomolgus macaques by single subcutaneous injection (SC, 0.02 mpk). The vehicle for subcutaneous injection was citrate buffer solution (20 mM, pH=7). The whole blood was collected and processed to get the plasma. The drug concentration was analyzed by LC-MS/MS, and the pharmacokinetic parameters were calculated using Phoenix WinNonlin software.

[4] = biological target: T1, GLP-1R (Homo sapiens, UniProt P43220); test: In vitro GLP-1R agonistic activity test (cAMP kit); assay type: cell-based; conditions: HEK293 host cells
T1 construct: host or cells: HEK293
Experimental: The cell lines were constructed by Wuxi […] (Shanghai) Co., Ltd. See details in Table 1 below. [table] [table] The test compounds were diluted at a 4-fold dilution factor in 10 points, starting from an initial concentration of 30 μM. The dilution was carried out by Bravo. • 1) 100 nL of compounds were transferred to an OptiPlate-384 plate by Echo. • 2) The OptiPlate-384 plate was centrifuged at 1000 rpm for 5 s. • 1) A GLP-1R/GIPR cell cryovial was placed in warm water at 37° C. for rapid thawing. • 2) The cell suspension was transferred into a 15 mL Transfer centrifugal tube and rinsed with 10 mL of HBSS gently. • 3) The centrifugal tube was centrifuged at 1000 rpm at room temperature for 1 min. • 4) The supernatant was discarded. • 5) The bottom cells were gently dispersed, then gently rinsed with 10 mL of HBSS, the centrifugal tube was centrifuged to settle the cells, and finally the cells were resuspended in an experimental buffer. • 6) Cell density and viability were measured by Vi-cell. • 7) The GLP-1R/GIPR cells were diluted with the experimental buffer to a concentration of 2.0*10^5/mL. • 8) […] of the diluted cell suspension was transferred into the OptiPlate-384 plate. • 9) Incubation was performed at room temperature for 30 min. • 1) 10 μL of 800 nM gradient diluted cAMP standard was added into the empty wells of the OptiPlate-384 plate. • 2) 10 μL of cAMP assay reagent was added. • 3) The OptiPlate-384 plate was covered with TopSeal-A film and incubated at room temperature for 60 min. The TopSeal-A film was removed, and readout was performed on En Vision.

[5] = in vitro; assay type: in vitro ADME; conditions: human, plasma
Experimental: as §1, with “•” for “To study the stability of the test compounds in the plasma of normal mice. •”

T1 sequence (P43220 24-463, species assumed): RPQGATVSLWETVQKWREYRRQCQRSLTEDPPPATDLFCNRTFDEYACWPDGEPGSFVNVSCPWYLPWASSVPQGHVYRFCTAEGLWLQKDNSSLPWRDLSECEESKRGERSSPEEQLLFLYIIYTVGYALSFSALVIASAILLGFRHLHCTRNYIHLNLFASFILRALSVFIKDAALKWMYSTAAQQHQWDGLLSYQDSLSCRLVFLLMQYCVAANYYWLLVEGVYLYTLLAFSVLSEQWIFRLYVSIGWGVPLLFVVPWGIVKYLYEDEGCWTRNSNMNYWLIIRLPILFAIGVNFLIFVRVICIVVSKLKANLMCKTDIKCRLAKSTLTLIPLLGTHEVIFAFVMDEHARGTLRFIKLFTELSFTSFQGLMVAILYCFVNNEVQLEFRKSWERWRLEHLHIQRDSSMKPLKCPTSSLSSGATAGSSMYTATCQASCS

Row | half-life [1] [h] | Cmax ([2]; C57BL/6, mouse) [nM] | AUC(0-t) ([2]; mouse) [µM·h] | Tmax ([2]; mouse) [h] | half-life ([2]; mouse) [h] | AUC(0-t) [3] [µM·h] | Cmax [3] [nM] | Tmax [3] [h] | half-life [3] [h] | EC50 ([4]; with 1% HSA) [nM] | EC50 ([4]; without 1% HSA) [nM] | half-life [5] [h] | half-life at 2 μM ([1]; pH 7.4) [h] | Tmax ([2]; C57BL/6, mouse) [h] | half-life at 2 μM ([5]; pH 7.4) [h] | SMILES
1 | > 4.82 | 79 | 2.24 | 12 | 16 | 4.47 | 36 | 24 | 100 | 7.63 | 0.036 | > 4.82 |  |  |  | CC[C@H](C)[C@H](NC(=O)[C@H](CC(C)C)NC(=O)[C@H](Cc1c[nH]c2ccccc12)NC(=O)[C@H](CCC(=O)O)NC(=O)[C@@H](NC(=O)[C@H](Cc1ccccc1)NC(=O)[C@H](C)NC(=O)[C@@H]1CCCCNC(=O)CN(C(=O)COCCOCCNC(=O)COCCOCCNC(=O)CC[C@H](NC(=O)CCCCCCCCCCCCCCCCCCC(=O)O)C(=O)O)CC(=O)NCCCC[C@H](NC(=O)[C@H](CCCCN)NC(=O)[C@H](CC(=O)O)NC(=O)[C@H](CC(C)C)NC(=O)C(C)(C)NC(=O)[C@@H](NC(=O)[C@H](CO)NC(=O)[C@H](Cc2ccc(O)cc2)NC(=O)[C@H](CC(=O)O)NC(=O)[C@H](CO)NC(=O)[C@@H](NC(=O)[C@H](Cc2ccccc2)NC(=O)[C@@H](NC(=O)CNC(=O)[C@H](CCC(=O)O)NC(=O)C(C)(C)NC(=O)[C@@H](N)Cc2ccc(O)cc2)[C@@H](C)O)[C@@H](C)O)[C@@H](C)CC)C(=O)N[C@@H](C)C(=O)N[C@@H](CCC(N)=O)C(=O)N1)C(C)C)C(=O)N[C@@H](C)C(=O)NCC(=O)NCC(=O)N1CCC[C@H]1C(=O)N[C@@H](CO)C(=O)N[C@@H](CO)C(=O)NCC(=O)N[C@@H](C)C(=O)N1CCC[C@H]1C(=O)N1CCC[C@H]1C(=O)N1CCC[C@H]1C(=O)N[C@@H](CO)C(N)=O [WX-005]
2 |  | 59 |  |  |  |  | 37 | 24 |  |  | 0.014 |  | > 3.98 | 12 | > 4.82 | CC[C@H](C)[C@H](NC(=O)[C@H](CC(C)C)NC(=O)[C@H](Cc1c[nH]c2ccccc12)NC(=O)[C@H](CCC(=O)O)NC(=O)[C@@H](NC(=O)[C@H](Cc1ccccc1)NC(=O)[C@H](CCC(=O)O)NC(=O)[C@@H]1CCCCNC(=O)CN(C(=O)COCCOCCNC(=O)COCCOCCNC(=O)CC[C@H](NC(=O)CCCCCCCCCCCCCCCCCCC(=O)O)C(=O)O)CC(=O)NCCCC[C@H](NC(=O)[C@H](CCCCN)NC(=O)[C@H](CC(=O)O)NC(=O)[C@H](CC(C)C)NC(=O)C(C)(C)NC(=O)[C@@H](NC(=O)[C@H](CO)NC(=O)[C@H](Cc2ccc(O)cc2)NC(=O)[C@H](CC(=O)O)NC(=O)[C@H](CO)NC(=O)[C@@H](NC(=O)[C@H](Cc2ccccc2)NC(=O)[C@@H](NC(=O)CNC(=O)[C@H](CCC(=O)O)NC(=O)C(C)(C)NC(=O)[C@@H](N)Cc2ccc(O)cc2)[C@@H](C)O)[C@@H](C)O)[C@@H](C)CC)C(=O)N[C@@H](C)C(=O)N[C@@H](CCC(N)=O)C(=O)N1)C(C)C)C(=O)N[C@@H](C)C(=O)NCC(=O)NCC(=O)N1CCC[C@H]1C(=O)N[C@@H](CO)C(=O)N[C@@H](CO)C(=O)NCC(=O)N[C@@H](C)C(=O)N1CCC[C@H]1C(=O)N1CCC[C@H]1C(=O)N1CCC[C@H]1C(=O)N[C@@H](CO)C(N)=O [WX-009]
